≈ marks a conversion by molar mass, not a printed value. Entries after “also recorded” stand apart in the source; their conditions may differ. Read-outs that look alike come from different tables or passages of the source.
How the values were obtained:
[1] = Tissue distribution after oral administration, HPLC; format: in vivo, Sprague-Dawley rats; details: for Kp: po, 5 mg/kg
Experimental: Seven-week-old male Sprague-Dawley rats were used. The test compounds were orally administered at a dose of 5 mg/kg to rats fasted overnight. At intervals of 0.083, 0.25, 0.5, 1, 2, 4, 6, 8, 12 and 24 h after administration, the rats were anesthetized with ether and blood samples were taken from the abdominal aorta. Plasma samples were obtained from the blood samples in the usual way. The lungs and kidneys were removed after collection of blood, and homogenated with 4 ml and 7 ml of 1 M HCl-citrate buffer (pH 4.0), respectively.
The concentration of the test compounds in the biological fluids (plasma and in each tissue tested) was determined by HPLC method. Hydrochloric acid and ether were added to 0.5 ml of plasma or 0.5 g of each tissue homogenate. The mixture was shaken and centrifuged. After the removal of the organic phase, aq. NaOH solution, phosphate buffer (pH 7.0) and chloroform were added to the aqueous phase. The mixture was shaken and centrifuged. The organic phase was then concentrated. The residue was dissolved and subjected to HPLC. The concentration of the test compounds in each biological fluid at Tmax (time of the maximum concentration in plasma) is shown in Table 6.

E. cloacae 963 = experiment: Antibacterial activity, MIC by agar dilution; format: cell-based; details: Enterobacter cloacae, laboratory standard strain, gram -
From the text: (§1) The strains employed were as follows:
(§2) Enterobacter cloacae (E. cloacae)

E. cloacae HNR1941 = experiment: Antibacterial activity, MIC by agar dilution; format: cell-based; details: Enterobacter cloacae, clinically isolated strain, gram -
From the text: as §1, §2

E. cloacae HNR1939 = experiment: Antibacterial activity, MIC by agar dilution; format: cell-based; details: Enterobacter cloacae, clinically isolated strain, gram -
From the text: as §1, §2

E. cloacae HNR1946 = experiment: Antibacterial activity, MIC by agar dilution; format: cell-based; details: Enterobacter cloacae, clinically isolated strain, gram -
From the text: as §1, §2

S. aureus HPC308 = experiment: Antibacterial activity, MIC by agar dilution; format: cell-based; details: Staphylococcus aureus, clinically isolated strain, gram +
From the text: as §1
(§3) Staphylococcus aureus (S. aureus)

S. aureus HPC527 = experiment: Antibacterial activity, MIC by agar dilution; format: cell-based; details: Staphylococcus aureus, clinically isolated strain, gram +
From the text: as §1, §3

S. aureus HPC292 = experiment: Antibacterial activity, MIC by agar dilution; format: cell-based; details: Staphylococcus aureus, clinically isolated strain, gram +
From the text: as §1, §3

S. aureus FDA 209P JC-1 = experiment: Antibacterial activity, MIC by agar dilution; format: cell-based; details: Staphylococcus aureus, FDA209P; laboratory standard strain, gram +
From the text: as §1, §3

K. pneumoniae HNR858 = experiment: Antibacterial activity, MIC by agar dilution; format: cell-based; details: Klebsiella pneumoniae, clinically isolated strain, gram -
From the text: as §1
(§4) Klebsiella pneumoniae (K. pneumoniae)

K. pneumoniae HNR828 = experiment: Antibacterial activity, MIC by agar dilution; format: cell-based; details: Klebsiella pneumoniae, clinically isolated strain, gram -
From the text: as §1, §4

K. pneumoniae PCI-602 = experiment: Antibacterial activity, MIC by agar dilution; format: cell-based; details: Klebsiella pneumoniae, PCI602; laboratory standard strain, gram -
From the text: as §1, §4

K. pneumoniae HNR869 = experiment: Antibacterial activity, MIC by agar dilution; format: cell-based; details: Klebsiella pneumoniae, clinically isolated strain, gram -
From the text: as §1, §4

Male Hartley guinea pigs = format: in vivo; details: 10 mg/kg i.v.; for Phototoxicity: number of animals with erythemas/number of animals tested: UVA 90 minutes, 24 h after irradiation; for phototoxicity, in words: UVA
Experimental: Male Hartley guinea pigs were intravenously administered test compounds at a dose of 10 mg/kg, and immediately exposed to UVA on their backs for 90 minutes.

E. faecalis HPC975 = experiment: Antibacterial activity, MIC by agar dilution; format: cell-based; details: Enterococcus faecalis, clinically isolated strain, gram +
From the text: as §1
(§5) Enterococcus faecalis (E. faecalis)

E. faecalis HPC984 = experiment: Antibacterial activity, MIC by agar dilution; format: cell-based; details: Enterococcus faecalis, clinically isolated strain, gram +
From the text: as §1, §5

E. faecalis HPC948 = experiment: Antibacterial activity, MIC by agar dilution; format: cell-based; details: Enterococcus faecalis, clinically isolated strain, gram +
From the text: as §1, §5

A. calcoaceticus HNR916 = experiment: Antibacterial activity, MIC by agar dilution; format: cell-based; details: Acinetobacter calcoaceticus, clinically isolated strain, gram -
From the text: as §1
(§6) Acinetobacter calcoaceticus (A. calcoaceticus)

A. calcoaceticus HNR904 = experiment: Antibacterial activity, MIC by agar dilution; format: cell-based; details: Acinetobacter calcoaceticus, clinically isolated strain, gram -
From the text: as §1, §6

A. calcoaceticus HNR939 = experiment: Antibacterial activity, MIC by agar dilution; format: cell-based; details: Acinetobacter calcoaceticus, clinically isolated strain, gram -
From the text: as §1, §6

CHL cells [2] = experiment: Chromosomal aberration test with a Chinese hamster lung cell line (CHL); format: cell-based
Experimental: The chromosomal aberration test was conducted with a Chinese hamster lung cell line (CHL). 2-(2-Furyl)-3-(5-nitro-2-furyl)acrylamide was used as a positive control. Cells treated with the test compounds were cultured for 6 h at 37° C. in 5% CO2 -humidified air. Following the 6 h treatment the cells were washed. Fresh medium was added to the washed cells and they were cultured for a further 18 h. Colcemide was added to the cultures 2 h before the fixation of chromosome preparation, in order to collect metaphase cells.

E. coli NIHJ JC-2 = experiment: Antibacterial activity, MIC by agar dilution; format: cell-based; details: Escherichia coli, NIHJJC2; laboratory standard strain, gram -
From the text: as §1
Escherichia coli (E. coli)

[3] = system: polychromatic erythrocytes (PCEs); experiment: Micronucleus test, bone marrow of mice; format: in vivo, BDF 1 mice; details: percent of the number of MNPCEs per 1,000 PCEs; 250 mg/kg i.p., 24 h
Experimental: Nine-week-old male BDF 1 mice were used in this test. The test compounds were injected intraperitoneally with a dose of 250 mg/kg. After 24 h mice were sacrificed and the bone marrow of the femur was collected. Bone marrow smears were fixed on the slides with methanol and stained with Giemsa according to the usual method. For each animal, the number of micronucleated polychromatic erythrocytes (MNPCEs) per 1,000 polychromatic erythrocytes (PCEs) was counted under the microscope. Cyclophosphamide was used as a positive control.

[4] = system: clinically isolated strains (HPC527, HPC308 and HPC292) of S aureus; experiment: Comparison with analogous compounds: antibacterial activity (MIC) against clinically isolated strains of S. aureus; format: cell-based, Staphylococcus aureus; details: comparison to Tables 7 and 8
Experimental: Minimum inhibitory concentrations (MICs) of test compounds were determined by agar dilution procedure as described in the standard method of the Japan Society of Chemotherapy (Chemotherapy (Tokyo), 29,1, 76 (1981)). The strains employed were as follows:
All the data of the antibacterial activity, chromosomal aberration activity, phototoxicity and inducement of convulsions were obtained from the same tests methods as those described above. Among this, the data of the antibacterial activity shown in Tables 7 and 8 are MICs (minimum inhibitory concentrations) value against clinically isolated strains (HPC527, HPC308 and HPC292) of S aureus which is a representative gram-positive bacteria.

S. marcescens HNR1767 = experiment: Antibacterial activity, MIC by agar dilution; format: cell-based; details: Serratia marcescens, clinically isolated strain, gram -
From the text: as §1
(§7) Serratia marcescens (S. marcescens)

S. marcescens HNR1792 = experiment: Antibacterial activity, MIC by agar dilution; format: cell-based; details: Serratia marcescens, clinically isolated strain, gram -
From the text: as §1, §7

S. marcescens HNR1544 = experiment: Antibacterial activity, MIC by agar dilution; format: cell-based; details: Serratia marcescens, clinically isolated strain, gram -
From the text: as §1, §7

S. marcescens IAM 1184 = experiment: Antibacterial activity, MIC by agar dilution; format: cell-based; details: Serratia marcescens, IAM1184; laboratory standard strain, gram -
From the text: as §1, §7

CHL cells [5] = details: 31th ICAAC, Abstract No. 1507 (1991); cited from earlier work
[6] = times higher than ciprofloxacin, at Tmax

Structure (SMILES) | MIC (E. cloacae 963) [µg/mL] | MIC (E. cloacae HNR1941) [µg/mL] | MIC (E. cloacae HNR1939) [µg/mL] | MIC (E. cloacae HNR1946) [µg/mL] | MIC (S. aureus HPC308) [µg/mL] | MIC (S. aureus HPC527) [µg/mL] | MIC (S. aureus HPC292) [µg/mL] | MIC (S. aureus FDA 209P JC-1) [µg/mL] | MIC (K. pneumoniae HNR858) [µg/mL] | MIC (K. pneumoniae HNR828) [µg/mL] | MIC (K. pneumoniae PCI-602) [µg/mL] | MIC (K. pneumoniae HNR869) [µg/mL] | Phototoxicity: number of animals with erythemas/number of animals tested (Male Hartley guinea pigs) | MIC (E. faecalis HPC975) [µg/mL] | MIC (E. faecalis HPC984) [µg/mL] | MIC (E. faecalis HPC948) [µg/mL] | MIC (A. calcoaceticus HNR916) [µg/mL] | MIC (A. calcoaceticus HNR904) [µg/mL] | MIC (A. calcoaceticus HNR939) [µg/mL] | toxicity (chromosomal aberration), in words (CHL cells [2]) | also measured
Cc1c(N2C[C@@H](N)C3(CC3)C2)c(F)c(N)c2c(=O)c(C(=O)O)cn(C3CC3)c12 [Example 10, 5-Amino-7-((S)-7-amino-5-azaspiro[2.4]hept-5-yl)-1-cyclopropyl-6-fluoro-1,4-dihydro-8-methyl-4-oxoquinoline-3-carboxylic acid] | 0.025 (≈ 0.0647 µM) | 3.13 (≈ 8.1 µM) | 0.1 (≈ 0.259 µM) | 0.2 (≈ 0.518 µM) | 0.39 | 0.025 | 1.56 | 0.025 | 0.2 (≈ 0.518 µM) | 3.13 (≈ 8.1 µM) | 0.003 (≈ 0.00776 µM) | 1.56 (≈ 4.04 µM) | 0/5 | 1.56 | 0.1 | 0.39 | 0.012 (≈ 0.0311 µM) | 1.56 (≈ 4.04 µM) | 0.2 (≈ 0.518 µM) | did not show | Tmax ([1]; plasma, rat, 5 mg/kg oral): 15 min; Cmax ([1]; plasma, rat, 5 mg/kg oral, read-out: Concentration in plasma at Tmax): 580 ng/mL; Concentration in kidney at Tmax ([1]; rat, 5 mg/kg oral): 8.5 µg/g; Concentration in lung at Tmax ([1]; rat, 5 mg/kg oral): 4.0 µg/g; Kp ([1]; rat, kidney, read-out: concentration ratio (tissue/plasma), kidney): 15; Kp ([1]; rat, lung, read-out: concentration ratio (tissue/plasma), lung): 6.9; a/b: concentration ratio (tissue/plasma) kidney, Example 10/ciprofloxacin [1, 6]: 4.2; a/b: concentration ratio (tissue/plasma) lung, Example 10/ciprofloxacin [1, 6]: 8.6; a/b: kidney concentration, Example 10/ciprofloxacin [1, 6]: 7.4; a/b: lung concentration, Example 10/ciprofloxacin [1, 6]: 16; MIC (E. coli NIHJ JC-2): 0.012 µg/mL (≈ 0.0311 µM); Incidence of MNPCEs [3]: 0.18%; antibacterial activity compared with reference compound, in words [4]: higher antibacterial activity than the analogous reference compound B; also recorded: excellent antibacterial activity as potent as the analogous reference compound C; also recorded: much higher antibacterial activity than the analogous reference compound I; MIC (S. marcescens HNR1767): 6.25 µg/mL (≈ 16.2 µM); MIC (S. marcescens HNR1792): 3.13 µg/mL (≈ 8.1 µM); MIC (S. marcescens HNR1544): 0.05 µg/mL (≈ 0.129 µM); MIC (S. marcescens IAM 1184): 0.1 µg/mL (≈ 0.259 µM)
Cc1c(N2CC[C@H](N)C2)c(F)c(N)c2c(=O)c(C(=O)O)cn(C3CC3)c12.Cl [Example 12, 5-Amino-7-((S)-3-amino-1-pyrrolidinyl)-1-cyclopropyl-6-fluoro-1,4-dihydro-8-methyl-4-oxoquinoline-3-carboxylic acid hydrochloride] | 0.025 | 6.25 | 0.2 | 0.2 | 0.78 | 0.025 | 1.56 | 0.025 | 0.2 | 3.13 | 0.006 | 1.56 | 0/5 | 1.56 | 0.1 | 0.39 | 0.05 | 12.5 | 0.78 | did not show | phototoxicity, in words (Male Hartley guinea pigs): did not show; MIC (E. coli NIHJ JC-2): 0.025 µg/mL; Incidence of MNPCEs [3]: 0.16%; antibacterial activity compared with reference compound, in words ([4]; hydrochloride): much higher antibacterial activity than the analogous reference compound E; also recorded: higher antibacterial activity than the analogous reference compound F; also recorded: much higher antibacterial activity than the analogous reference compound I; MIC (S. marcescens HNR1767): 12.5 µg/mL; MIC (S. marcescens HNR1792): 1.56 µg/mL; MIC (S. marcescens HNR1544): 0.05 µg/mL; MIC (S. marcescens IAM 1184): 0.1 µg/mL
Cc1c(N2C[C@@H](N)C3(CC3)C2)c(F)cc2c(=O)c(C(=O)O)cn(C3CC3)c12 [Reference Compound C, 7-((S)-7-amino-5-azaspiro[2.4]hept-5-yl)-1-cyclopropyl-6-fluoro-1,4-dihydro-8-methyl-4-oxoquinoline-3-carboxylic acid] | – | – | – | – | – | – | – | – | – | – | – | – | – | – | – | – | – | – | – | observed | chromosomal aberrational activity, in words (CHL cells [5]): potent chromosomal aberrational activity; phototoxicity, in words (Male Hartley guinea pigs): no phototoxicity; death of guinea pigs (Male Hartley guinea pigs; phototoxicity test): death of one guinea pig out of five

From patent publication US5547962A, “5-amino-8-methyl-7-pyrrolidinylquinoline-3-carboxylic acid derivative” (priority 1993, dated 1996)
